# Source: patent publication USRE37781E1, “Substituted cyclic carbonyls and derivatives thereof useful as retroviral protease inhibitors” (DuPont Pharmaceuticals Company, priority 1991, dated 2002)
# Where two headings read alike, the source gives them in different places.
# How the values were obtained:
# [1] = system: HIV-1 (RF) in MT-2 cells; assay: microbe, parasite or virus in culture; type: cell-based
# How it was run: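 HIV-1 laboratory strains (RF, MN, IIIB) grown in H9 cells in RPMI 1640 with 5% FCS; infections in MT-2 cells. Viral RNA quantified by hybridization with biotinylated gag/pol capture probes on streptavidin plates and alkaline phosphatase-conjugated reporter probes; BH10 gag-pol in vitro transcripts serve as RNA standards.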
# [2] = target: single-chain tethered dimer of HIV protease (Human immunodeficiency virus 1, UniProt P04585); assay: biochemical; type: biochemical; parameters: fused on or other part: A second copy of the same protease unit is joined to the first by a short peptide tether, giving one polypeptide
# [3] = Table 2d, class symbols, read-out: HPLC K1
# [4] = Human immunodeficiency virus 1, MT2, 48 h, Table 2d, class symbols, read-out: IC90
# [5] = read-out: HPLC K1, Table 2d, class symbols
# [6] = Human immunodeficiency virus 1, MT2, 48 h, Table 2d, HIV RNA assay, read-out: IC90
# [7] = read-out: HPLC K1, Table 2d, HIV protease inhibition, HPLC method
# [8] = Table 2d, HIV protease inhibition, HPLC method, read-out: HPLC K1
compound,measurement,setting,value
CNCC(=O)Nc1cccc(CN2C(=O)N(Cc3cccc(NC(=O)CNC)c3)C(Cc3ccccc3)C(O)C(O)C2Cc2ccccc2)c1.Cl.Cl (stereo not shown) [15O],IC90,"[1]; Table 2d, class symbols",+++ (+++=<10 μg/mL)
same,Ki,[2]; [3],< 0.01 µM
NCC(=O)Nc1cccc(CN2C(=O)N(Cc3cccc(NC(=O)CN)c3)C(Cc3ccccc3)C(O)C(O)C2Cc2ccccc2)c1 (stereo not shown) [15R],IC90,[1]; [4],< 10 µg/mL
same,Ki,[2]; [5],< 0.01 µM
CS(=O)(=O)CCCCCN1C(=O)N(CCCCCO)C(Cc2ccccc2)C(O)C(O)C1Cc1ccccc1 (stereo not shown) [15VT],IC90,"[1]; Table 2d, class symbols",+++ (+++=<10 μg/mL)
same,Ki,[2]; [3],< 0.01 µM
CCNC(=O)c1cccc(CN2C(=O)N(Cc3cccc(CO)c3)C(Cc3ccccc3)C(O)C(O)C2Cc2ccccc2)c1 (stereo not shown) [15WK],IC90,[1]; [4],< 10 µg/mL
same,Ki,[2]; [5],< 0.01 µM
CCCNC(=O)c1cccc(CN2C(=O)N(Cc3cccc(C(=O)NCCC)c3)C(Cc3ccccc3)C(O)C(O)C2Cc2ccccc2)c1 (stereo not shown) [15WM],IC90,[1]; [4],< 10 µg/mL
same,Ki,[2]; [5],< 0.01 µM
O=C1N(Cc2cccnc2)C(Cc2ccccc2)C(O)C(O)C(Cc2ccccc2)N1Cc1cccc(CO)c1 (stereo not shown) [15WS],IC90,[1]; [4],< 10 µg/mL
same,Ki,[2]; [5],< 0.01 µM
Nc1cccc(CN2C(=O)N(Cc3ccc4ccccc4c3)C(Cc3ccccc3)C(O)C(O)C2Cc2ccccc2)c1 (stereo not shown) [15WU],IC90,[1]; [4],< 10 µg/mL
same,Ki,[2]; [5],< 0.01 µM
O=C(O)c1ccc(CN2C(=O)N(Cc3ccc(CO)cc3)C(Cc3ccccc3)C(O)C(O)C2Cc2ccccc2)cc1 (stereo not shown) [15XA],IC90,[1]; [6],10 to 100 µg/mL
same,Ki,[2]; [7],< 0.01 µM
O=Cc1ccc(CN2C(=O)N(Cc3ccc(CO)cc3)C(Cc3ccccc3)C(O)C(O)C2Cc2ccccc2)cc1 (stereo not shown) [15XB],IC90,[1]; [6],< 10 µg/mL
same,Ki,[2]; [7],< 0.01 µM
CC(O)c1cccc(CN2C(=O)N(Cc3cccc(C(C)O)c3)C(Cc3ccccc3)C(O)C(O)C2Cc2ccccc2)c1 (stereo not shown) [15XD],IC90,[1]; [6],< 10 µg/mL
same,Ki,[2]; [7],< 0.01 µM
NS(=O)(=O)c1cccc(CN2C(=O)N(Cc3cccc(S(N)(=O)=O)c3)C(Cc3ccccc3)C(O)C(O)C2Cc2ccccc2)c1 (stereo not shown) [15XQ],IC90,[1]; [6],< 10 µg/mL
same,Ki,[2]; [7],< 0.01 µM
Cl.NCC(=O)Nc1cccc(CN2C(=O)N(Cc3ccc(CO)cc3)C(Cc3ccccc3)C(O)C(O)C2Cc2ccccc2)c1 (stereo not shown) [15XT],IC90,"[1]; Table 2d, HIV RNA assay",+++ (+++=<10 μg/mL)
same,Ki,[2]; [8],< 0.01 µM
O=C(NCCN1CCOCC1)c1cccc(CN2C(=O)N(Cc3cccc(C(=O)NCCN4CCOCC4)c3)C(Cc3ccccc3)C(O)C(O)C2Cc2ccccc2)c1 (stereo not shown) [15XU],IC90,"[1]; Table 2d, HIV RNA assay",+++ (+++=<10 μg/mL)
same,Ki,[2]; [8],< 0.01 µM
CN(C)CCNC(=O)c1cccc(CN2C(=O)N(CC3CC3)C(Cc3ccccc3)C(O)C(O)C2Cc2ccccc2)c1 (stereo not shown) [15YA],IC90,"[1]; Table 2d, HIV RNA assay",+++ (+++=<10 μg/mL)
same,Ki,[2]; [8],< 0.01 µM
O=C(NCCN1CCOCC1)c1cccc(CN2C(=O)N(CC3CC3)C(Cc3ccccc3)C(O)C(O)C2Cc2ccccc2)c1 (stereo not shown) [15YB],IC90,"[1]; Table 2d, HIV RNA assay",+++ (+++=<10 μg/mL)
same,Ki,[2]; [8],< 0.01 µM
O=C1N(Cc2cccc(CO)c2)C(Cc2ccc(F)c(F)c2)C(O)C(O)C(Cc2ccc(F)c(F)c2)N1Cc1cccc(CO)c1 (stereo not shown) [20AA],IC90,[1]; Table 2i,+++ (+++=<10 μg/mL)
same,Ki,"[2]; Table 2i, read-out: HPLC Ki",< 0.01 µM
O=C1N(Cc2ccc(CO)cc2)C(Cc2ccc(F)c(F)c2)C(O)C(O)C(Cc2ccc(F)c(F)c2)N1Cc1ccc(CO)cc1 (stereo not shown) [20AB],IC90,[1]; Table 2i,+++ (+++=<10 μg/mL)
same,Ki,"[2]; Table 2i, read-out: HPLC Ki",< 0.01 µM
NC(=O)c1cccc(CN2C(=O)N(Cc3cccc(C(N)=O)c3)C(Cc3ccc(F)c(F)c3)C(O)C(O)C2Cc2ccc(F)c(F)c2)c1 (stereo not shown) [20AC],IC90,[1]; Table 2i,+++ (+++=<10 μg/mL)
same,Ki,"[2]; Table 2i, read-out: HPLC Ki",< 0.01 µM
NC(=NO)c1cccc(CN2C(=O)N(Cc3cccc(C(N)=NO)c3)C(Cc3ccc(F)c(F)c3)C(O)C(O)C2Cc2ccc(F)c(F)c2)c1 (stereo not shown) [20AD],IC90,[1]; Table 2i,+++ (+++=<10 μg/mL)
same,Ki,"[2]; Table 2i, read-out: HPLC Ki",< 0.01 µM
O=C1N(Cc2cccc(-c3cc[nH]n3)c2)C(Cc2ccc(F)cc2)C(O)C(O)C(Cc2ccc(F)cc2)N1CC1CC1 (stereo not shown) [20AE],IC90,[1]; Table 2i,+++ (+++=<10 μg/mL)
same,Ki,"[2]; Table 2i, read-out: HPLC Ki",< 0.01 µM
COc1cccc(CC2NC(=O)NC(Cc3cccc(OC)c3)C(O)C2O)c1 (stereo not shown) [20AO],IC90,[1]; Table 2i,++ (++=10 to 100 μg/mL)
same,Ki,"[2]; Table 2i, read-out: HPLC Ki",0.01 to 1 µM
O=C1N(Cc2cccc(O)c2)C(Cc2cccc(O)c2)C(O)C(O)C(Cc2cccc(O)c2)N1Cc1cccc(O)c1 (stereo not shown) [20AQ],IC90,[1]; Table 2i,+++ (+++=<10 μg/mL)
same,Ki,"[2]; Table 2i, read-out: HPLC Ki",< 0.01 µM
COc1cccc(CC2C(O)C(O)C(Cc3cccc(OC)c3)N(CC3CC3)C(=O)N2CC2CC2)c1 (stereo not shown) [20AS],IC90,[1]; Table 2i,+++ (+++=<10 μg/mL)
same,Ki,"[2]; Table 2i, read-out: HPLC Ki",< 0.01 µM
